Several values for one entry are separate records, joined by “and”; a condition that tells them apart may be missing. Equal entries are not always repeated.
System: 855422-203-R-J1-PDC complex spheroid growth
Experiment: Anticancer human tumor 855422-203-R-J1-PDC patient-derived bladder carcinoma cell line growth inhibition [AhR]
Settings: for viability, T/C: stronger effect = lower value
Excerpt: Multicellular complex tumor spheroid response to aryl hydrocarbon receptor antagonists in combination with a variety of drugs and investigational agents in selected tumor cell lines
The current study was undertaken to assess response to aryl hydrocarbon receptor antagonists in combination with standard-of-care drugs and investigational agents in solid tumor complex spheroid models. Complex spheroids include a stromal component modeled by human endothelial cells (HUVEC) and fibroblasts modeled by human mesenchymal stem cells (MSCs). The concentration ranges selected for each drug and investigational agent were based upon clinically achievable concentrations if the clinical Cmax of the agent was known.
Compounds. The drugs and investigational agents: BAY 2416964 (NSC825713), GNF351 (NSC835774), CH-223191 (NSC835775), CPI-455 (NSC825282), aza-TdCyd (NSC777586), decitabine (NSC127716), belinostat (NSC758774), entinostat (NSC756642), pevonedistat (NSC761192), tazemetostat (NSC777109), talazoparib (NSC765396), olaparib (NSC753686), selinexor (NSC780203), nedisertib (M3814, NSC802822), bortezomib (NSC756655), venetoclax (NSC766270), doxorubicin (NSC123127), elimusertib (BAY189344, NSC800525), ceralasertib (AZD6738, NSC777638), TAK-243 (NSC785004), alisertib (NSC759677), etoposide (NSC141540), topotecan (NSC609699), eribulin (NSC707389), gemcitabine (NSC613327), carboplatin (NSC241240), cisplatin (NSC119875), and SN-38 (NSC673596) were obtained from the National Cancer Institute (NCI) Developmental Therapeutics Program Chemical Repository (32). The FDA-approved anticancer drug set is available from the Developmental Therapeutics Program at https://dtp.cancer.gov/organization/dscb/obtaining/available plates.htm. […] The stock solutions were prepared in dimethyl sulfoxide (DMSO, Sigma-Aldrich, St. Louis, MO, cat. D2650), except for the platinum compounds which were prepared in saline (Quality Biological, Gaithersburg, MD, cat. 114-055-101), at 800-fold the tested concentration and stored at -70 degrees C prior to their use. All drugs and investigational agents were tested over a range starting from a high concentration at or near the clinical Cmax and decreasing in half-log increments. If the clinical Cmax for an agent had not been determined, the highest concentration tested was 10 microM (Table 1).
Cell Culture. All cells were maintained in an incubator at 37 degrees C and 5% CO2 with 95% humidity. The PDC lines were cultured according to standard operating procedures established by the NCI PDMR (https://pdmr.cancer.gov). Briefly, all PDCs were thawed and cultured in Matrigel-coated flasks prepared with a working solution of 1X Ham's F-12 nutrient mix, without supplementation (Invitrogen, Waltham, MA, cat. 11765054), 100 U/mL penicillin-streptomycin (Invitrogen, cat. 15140122), and 2.5% Matrigel (Corning Inc., Corning, NY, cat. 354248) for the first three passages. All PDCs were cultured in complete DMEM/F-12 media containing advanced DMEM/F-12 (Invitrogen, cat. 12634028), 4.9% defined fetal bovine serum, heat inactivated (HyClone Laboratories Inc., Logan, UT, cat. SH30070.03HI), 389 ng/mL hydrocortisone (Sigma-Aldrich, cat. H4001), 9.7 ng/mL human EGF recombinant protein (Invitrogen, cat. PHG0313), 23.4 microg/mL adenine (Sigma-Aldrich, cat. A2786), 97.3 U/mL penicillin-streptomycin (Invitrogen, cat. 15140122), 1.9 mM L-glutamine (Invitrogen, cat. 25030081), and 9.7 microM Y-27632 dihydrochloride (Tocris Bioscience, Bristol, United Kingdom, cat. 1254). The PDCs were cultured in complete DMEM/F12 media without 10 microM Y-27632 dihydrochloride for at least two passages prior to the screen. The established cell lines NCI-H1341 and […] were cultured in DMEM/F-12, HEPES (Invitrogen, cat. 11330032), 5% defined fetal bovine serum (HyClone Laboratories Inc., cat. SH30070.03), ITS premix universal culture supplement [insulin (5 microg/mL), transferrin (5 microg/mL), and selenious acid (5 ng/mL)] […]

[1] = curve of first compound, second compound 0.1 µM
[2] = curve of first compound, second compound 0.316 µM
[3] = curve of first compound, second compound 1 µM
[4] = curve of first compound, second compound 3.16 µM
[5] = curve of first compound, second compound 10 µM
[6] = second compound 0.1 µM, first compound 0.0316 µM
[7] = second compound 0.1 µM, first compound 0.1 µM
[8] = second compound 0.1 µM, first compound 0.316 µM
[9] = second compound 0.1 µM, first compound 1 µM
[10] = second compound 0.1 µM, first compound 3.16 µM
[11] = second compound 0.1 µM, first compound 10 µM
[12] = second compound 0.316 µM, first compound 0.0316 µM
[13] = second compound 0.316 µM, first compound 0.1 µM
[14] = second compound 0.316 µM, first compound 0.316 µM
[15] = second compound 0.316 µM, first compound 1 µM
[16] = second compound 0.316 µM, first compound 3.16 µM
[17] = second compound 0.316 µM, first compound 10 µM
[18] = second compound 1 µM, first compound 0.0316 µM
[19] = second compound 1 µM, first compound 0.1 µM
[20] = second compound 1 µM, first compound 0.316 µM
[21] = second compound 1 µM, first compound 1 µM
[22] = second compound 1 µM, first compound 3.16 µM
[23] = second compound 1 µM, first compound 10 µM
[24] = second compound 3.16 µM, first compound 0.0316 µM
[25] = second compound 3.16 µM, first compound 0.1 µM
[26] = second compound 3.16 µM, first compound 0.316 µM
[27] = second compound 3.16 µM, first compound 1 µM
[28] = second compound 3.16 µM, first compound 3.16 µM
[29] = second compound 3.16 µM, first compound 10 µM
[30] = second compound 10 µM, first compound 0.0316 µM
[31] = second compound 10 µM, first compound 0.1 µM
[32] = second compound 10 µM, first compound 0.316 µM
[33] = second compound 10 µM, first compound 1 µM
[34] = second compound 10 µM, first compound 3.16 µM
[35] = second compound 10 µM, first compound 10 µM
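Note: spheroids exposed to agents for seven days before readout.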
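Throughout, for viability, T/C: percent of DMSO vehicle control luminescence viability.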

Structure (SMILES)	IC50 [1] [µM]	IC50 [2] [µM]	IC50 [3] [µM]	IC50 [4] [µM]	IC50 [5] [µM]	viability, T/C [6] [%]	viability, T/C [7] [%]	viability, T/C [8] [%]	viability, T/C [9] [%]	viability, T/C [10] [%]	viability, T/C [11] [%]	viability, T/C [12] [%]	viability, T/C [13] [%]	viability, T/C [14] [%]	viability, T/C [15] [%]	viability, T/C [16] [%]	viability, T/C [17] [%]	viability, T/C [18] [%]	viability, T/C [19] [%]	viability, T/C [20] [%]	other results
CC(C)c1c(-c2ccccc2)nc2c(C#N)c[nH]n2c1=O	–	–	–	–	–	–	–	–	–	–	–	–	–	–	–	–	–	–	–	–	viability, T/C (compound 0.0316 µM): 105% and 98.6% and 111%; viability, T/C (compound 0.1 µM): 97.8% and 96% and 112%; viability, T/C (compound 0.316 µM): 111% and 97% and 96.5%; viability, T/C (compound 1 µM): 99.3% and 89.9% and 105%; viability, T/C (compound 3.16 µM): 105% and 98.1% and 98.8%; viability, T/C (compound 10 µM): 77.9% and 92% and 96.4%; IC50 (curve of compound): > 10 µM
CC(C)c1c(-c2ccccc2)nc2c(C#N)c[nH]n2c1=O + CC(CO)NC(=O)c1cc(-c2ccc(Cl)cc2)nn(-c2cnn(C)c2)c1=O	> 10	> 10	> 10	> 10	> 10	103	100	95.2	85.6	92.4	91.8	93.1	105	95.8	105	98.8	92	103	106	104	viability, T/C [21]: 99.8%; viability, T/C [22]: 99.6%; viability, T/C [23]: 96.5%; viability, T/C [24]: 97.3%; viability, T/C [25]: 106%; viability, T/C [26]: 99.2%; viability, T/C [27]: 93.6%; viability, T/C [28]: 91.3%; viability, T/C [29]: 110%; viability, T/C [30]: 86.9%; viability, T/C [31]: 90.9%; viability, T/C [32]: 91.7%; viability, T/C [33]: 98%; viability, T/C [34]: 93%; viability, T/C [35]: 92.1%
COc1cccc2c1C(=O)c1c(O)c3c(c(O)c1C2=O)CC(O)(C(=O)CO)CC3OC1CC(N)C(O)C(C)O1 (centres undefined)	–	–	–	–	–	–	–	–	–	–	–	–	–	–	–	–	–	–	–	–	viability, T/C (compound 0.0316 µM): 19% and 41.1% and 29.2%; viability, T/C (compound 0.1 µM): 13.1% and 28.8% and 16.9%; viability, T/C (compound 0.316 µM): 3.14% and 7.44% and 4.25%; viability, T/C (compound 1 µM): 0.97% and 2.58% and 1.55%; viability, T/C (compound 3.16 µM): 1.22% and 1.89% and 0.79%; viability, T/C (compound 10 µM): 1.82% and 4.62% and 3.32%; IC50 (curve of compound): < 0.0316 µM
Nc1ccccc1NC(=O)c1ccc(CNC(=O)OCc2cccnc2)cc1 + CC(CO)NC(=O)c1cc(-c2ccc(Cl)cc2)nn(-c2cnn(C)c2)c1=O	3.89	4.06	4.13	2.87	3.1	94.2	91.2	92	89.5	57.9	14.4	92.2	91.6	90.1	89.2	60.7	11.2	95.2	91.8	91.7	viability, T/C [21]: 88.7%; viability, T/C [22]: 61.5%; viability, T/C [23]: 11.7%; viability, T/C [24]: 94%; viability, T/C [25]: 94.5%; viability, T/C [26]: 86.6%; viability, T/C [27]: 77.2%; viability, T/C [28]: 47.2%; viability, T/C [29]: 9.66%; viability, T/C [30]: 88.9%; viability, T/C [31]: 92.6%; viability, T/C [32]: 88.5%; viability, T/C [33]: 74.2%; viability, T/C [34]: 50.2%; viability, T/C [35]: 8.41%

Second part, led by results:

IC50 [1] [µM]	IC50 [2] [µM]	IC50 [3] [µM]	IC50 [4] [µM]	IC50 [5] [µM]	Structure (SMILES)	viability, T/C [6] [%]	viability, T/C [7] [%]	viability, T/C [8] [%]	viability, T/C [9] [%]	viability, T/C [10] [%]	viability, T/C [11] [%]	viability, T/C [12] [%]	viability, T/C [13] [%]	viability, T/C [14] [%]	viability, T/C [15] [%]	viability, T/C [16] [%]	viability, T/C [17] [%]	viability, T/C [18] [%]	viability, T/C [19] [%]	viability, T/C [20] [%]	other results
3.99	4.23	4.26	3.75	3.25	O=C(C=Cc1cccc(S(=O)(=O)Nc2ccccc2)c1)NO + Cc1ccccc1N=Nc1ccc(NC(=O)c2ccnn2C)c(C)c1	104	107	109	111	61.7	3.76	105	114	111	106	65.2	5.12	97.9	109	111	viability, T/C [21]: 105%; viability, T/C [22]: 66.2%; viability, T/C [23]: 3.95%; viability, T/C [24]: 96.8%; viability, T/C [25]: 95.6%; viability, T/C [26]: 104%; viability, T/C [27]: 96.5%; viability, T/C [28]: 58.1%; viability, T/C [29]: 3.54%; viability, T/C [30]: 87.2%; viability, T/C [31]: 95.4%; viability, T/C [32]: 88.7%; viability, T/C [33]: 79.6%; viability, T/C [34]: 51.3%; viability, T/C [35]: 3.79%
< 0.0316	< 0.0316	< 0.0316	< 0.0316	< 0.0316	COc1cccc2c1C(=O)c1c(O)c3c(c(O)c1C2=O)CC(O)(C(=O)CO)CC3OC1CC(N)C(O)C(C)O1 (centres undefined) + Cc1ccccc1N=Nc1ccc(NC(=O)c2ccnn2C)c(C)c1	47	32.6	7.99	2.76	2.93	5.62	32	24.1	6.58	2.77	2.16	3.66	45.6	25.8	6.31	viability, T/C [21]: 2.89%; viability, T/C [22]: 2.5%; viability, T/C [23]: 4.52%; viability, T/C [24]: 39.9%; viability, T/C [25]: 26.4%; viability, T/C [26]: 4.8%; viability, T/C [27]: 3.4%; viability, T/C [28]: 1.63%; viability, T/C [29]: 3.98%; viability, T/C [30]: 39.6%; viability, T/C [31]: 29.7%; viability, T/C [32]: 6.61%; viability, T/C [33]: 2.6%; viability, T/C [34]: 2.02%; viability, T/C [35]: 3.27%

Source: PubChem BioAssay AID1919005 (Molecular Pharmacology Branch, DTP, NCI, 2023)
